The text below walks through data of patent publication US10414765B2, “Substituted perhydropyrrolo[3,4-c]pyrrole derivatives and the use of same” (BAYER PHARMA AKTIENGESELLSCHAFT, priority 2015, dated 2019).

For one assay, the target named is human TASK-1 (Homo sapiens (Human), UniProt O14649). The experiment in a line: Inhibition of recombinant TASK-1 in stably transfected CHO cells (voltage-sensitive dye, 40 mM KCl depolarization). Type of assay: cell-based. Particulars: 40 mM potassium chloride. The protocol:
(§1) B-2. Inhibition of Recombinant TASK-1 and TASK-3 In Vitro
(§2) The investigations on the inhibition of the recombinant TASK-1 and TASK-3 channels were conducted using stably transfected CHO cells. The compounds according to the invention were tested in this case by application of 40 mM potassium chloride in the presence of a voltage-sensitive dye according to the methods described in detail in the following references [Whiteaker et al., Validation of FLIPR membrane potential dye for high-throughput screening of potassium channel modulators, J. Biomol. Screen. 6 (5), 305-312 (2001); Molecular Devices FLIPR Application Note: Measuring membrane potential using the FLIPR® membrane potential assay kit on Fluorometric Imaging Plate Reader (FLIPR®) systems, http://www.moleculardevices.com/reagents-supplies/assay-kits/ion-channels/flipr-membrane-potential-assay-kits]. The activity of the test substances was determined as their ability to inhibit a depolarization induced in the recombinant cells by 40 mM potassium chloride. The concentration which can block half of this depolarization is referred to as IC50.

In another assay the target is human TASK-3 (Homo sapiens (Human), UniProt Q9NPC2). The experiment in a line: Inhibition of recombinant TASK-3 in stably transfected CHO cells (voltage-sensitive dye, 40 mM KCl depolarization). The assay is classed as cell-based. Particulars: 40 mM potassium chloride. On the procedure: as §1, §2
human TASK-3, sequence (Q9NPC2 whole entry): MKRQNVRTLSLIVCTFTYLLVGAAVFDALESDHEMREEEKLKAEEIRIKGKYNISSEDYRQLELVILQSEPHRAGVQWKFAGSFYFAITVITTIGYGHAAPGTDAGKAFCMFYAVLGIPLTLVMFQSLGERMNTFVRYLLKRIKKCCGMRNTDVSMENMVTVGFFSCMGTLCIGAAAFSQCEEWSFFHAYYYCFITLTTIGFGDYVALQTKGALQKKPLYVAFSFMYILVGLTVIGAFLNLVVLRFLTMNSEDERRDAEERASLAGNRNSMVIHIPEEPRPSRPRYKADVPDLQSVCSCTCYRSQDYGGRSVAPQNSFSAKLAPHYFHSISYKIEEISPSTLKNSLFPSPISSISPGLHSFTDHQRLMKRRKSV

human TASK-1, sequence (O14649 whole entry): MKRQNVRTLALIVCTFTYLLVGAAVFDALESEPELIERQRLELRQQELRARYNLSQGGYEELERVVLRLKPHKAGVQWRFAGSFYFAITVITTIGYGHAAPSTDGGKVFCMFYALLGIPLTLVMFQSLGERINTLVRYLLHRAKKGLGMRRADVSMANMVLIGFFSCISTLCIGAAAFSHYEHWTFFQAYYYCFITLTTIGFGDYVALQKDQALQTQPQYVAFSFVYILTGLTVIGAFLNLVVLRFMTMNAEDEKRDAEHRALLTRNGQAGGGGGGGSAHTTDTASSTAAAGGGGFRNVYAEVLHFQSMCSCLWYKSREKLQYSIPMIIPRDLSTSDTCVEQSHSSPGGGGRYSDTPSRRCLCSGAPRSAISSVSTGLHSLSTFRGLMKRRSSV

One may read the IC50 as the concentration needed to halve the response being measured. On to `CC(C)c1ccc(-c2nc3ccccn3c2CN2CC3CN(C(=O)OC(C)(C)C)CC3C2)cc1` (stereo not drawn) [Example 3], for which the IC50 at human TASK-1 was found to be 2.5 µM; at human TASK-3 it was 7.4 µM.
Take `O=C(C1CCCCC1)N1CC2CN(Cc3c(-c4ccc(Br)cc4)nc4ccccn34)CC2C1` (stereo not drawn) [Example 8]: the figures for the IC50 on human TASK-1 and at human TASK-3 were 1.36 µM and 0.81 µM, respectively.
In the case of `O=C(Nc1ccc(Cl)c(C(F)(F)F)c1)N1CC2CN(Cc3c(-c4ccc(Br)cc4)nc4ccccn34)CC2C1` (stereo not drawn) [Example 43], the IC50 was found to be 1.7 µM at human TASK-1 and 2 µM at human TASK-3.
For `O=C(C1CCCCC1)N1CC2CN(Cc3c(-c4ccc(Cl)cc4)nc4ccccn34)CC2C1` (stereo not drawn) [Example 16], in that order: 1.94 µM and 1.1 µM.
With `O=C(c1cc(F)ccc1Cl)N1CC2CN(Cc3c(-c4ccc(Br)cc4)nc4ccccn34)CC2C1` (stereo not drawn) [Example 7], the results for the IC50 on human TASK-1 and at human TASK-3 were 0.787 µM and 4.3 µM, respectively.
For `COc1cccc(C(=O)N2CC3CN(Cc4c(-c5ccc(Br)cc5)nc5ccccn45)CC3C2)n1` (stereo not drawn) [Example 24], in that order: 0.33 µM and 0.8 µM.
`CC(C)OC(=O)N1CC2CN(Cc3c(-c4ccc(Br)cc4)nc4ccccn34)CC2C1` (stereo not drawn) [Example 35]: the IC50 on human TASK-1 came to 0.7 µM; on human TASK-3, 1.7 µM.
For `O=C(Oc1cccc(C(F)(F)F)c1)N1CC2CN(Cc3c(-c4ccc(Br)cc4)nc4ccccn34)CC2C1` (stereo not drawn) [Example 36], in that order: 0.18 µM and 0.45 µM.
For `CC(C)c1ccc(-c2nc3ccccn3c2CN2CC3CN(C(=O)c4ccccc4F)CC3C2)cc1` (stereo not drawn) [Example 26], in that order: 0.22 µM and 0.31 µM.
For `CC(C)(C)OC(=O)N1CC2CN(Cc3c(-c4ccc(Br)cc4)nc4ccccn34)CC2C1` (stereo not drawn) [Example 2], in that order: 1.73 µM and 5.4 µM.
On to `O=C(OCCF)N1CC2CN(Cc3c(-c4ccc(Br)cc4)nc4ccccn34)CC2C1` (stereo not drawn) [Example 37], for which the IC50 on human TASK-1 was determined as 0.6 µM; on human TASK-3 it was 1.8 µM.
For `Cc1ccccc1C(=O)N1CC2CN(Cc3c(-c4ccc(Br)cc4)nc4ccccn34)CC2C1` (stereo not drawn) [Example 13], in that order: 0.712 µM and 1.3 µM.
Consider `COc1ccccc1C(=O)N1CC2CN(Cc3c(-c4ccc(Cl)cc4)nc4ccccn34)CC2C1` (stereo not drawn) [Example 18], for which the IC50 at human TASK-1 amounted to 1.68 µM; at human TASK-3, 4.9 µM.
For the compound `O=C(c1ccccc1F)N1CC2CN(Cc3c(-c4ccc(Br)cc4)nc4ccccn34)CC2C1` (stereo not drawn) [Example 6], the values for the half-inhibitory concentration (IC50) on human TASK-1 and at human TASK-3 were 0.683 µM and 1.3 µM, respectively.
Take `CC(NC(=O)N1CC2CN(Cc3c(-c4ccc(Br)cc4)nc4ccccn34)CC2C1)c1ccccc1` (stereo not drawn) [Example 46]: the IC50 was 0.46 µM on human TASK-1 and 2.2 µM on human TASK-3.
For `CN(C(=O)N1CC2CN(Cc3c(-c4ccc(Br)cc4)nc4ccccn34)CC2C1)c1ccccc1` (stereo not drawn) [Example 29, 5-{[2-(4-Bromophenyl)imidazo[1,2-a]pyridin-3-yl]methyl}-N-methyl-N-phenylhexahydropyrrolo[3,4-c]pyrrole-2(1H)-carboxamide], in that order: 0.92 µM and 2.1 µM.
Take `COc1ccc(F)c(C(=O)N2CC3CN(Cc4c(-c5ccc(Cl)cc5)nc5ccccn45)CC3C2)n1` (stereo not drawn) [Example 50]: the IC50 on human TASK-1 was 1.1 µM; on human TASK-3, 0.11 µM.
Consider `COc1ccc(Cl)c(C(=O)N2CC3CN(Cc4c(-c5ccc(Cl)cc5)nc5ccccn45)CC3C2)n1` (stereo not drawn) [Example 51], for which the IC50 came to 1.4 µM on human TASK-1 and 0.08 µM on human TASK-3.
Take `O=C(OCc1ccccc1)N1CC2CN(Cc3c(-c4ccc(Br)cc4)nc4ccccn34)CC2C1` (stereo not drawn) [Example 33]: the IC50 on human TASK-1 was determined as 0.46 µM; at human TASK-3, 4.4 µM.
For `O=C(Nc1ccc(F)cc1F)N1CC2CN(Cc3c(-c4ccc(Br)cc4)nc4ccccn34)CC2C1` (stereo not drawn) [Example 38, 5-{[2-(4-Bromophenyl)imidazo[1,2-a]pyridin-3-yl]methyl}-N-(2,4-difluorophenyl)hexahydropyrrolo[3,4-c]pyrrole-2(1H)-carboxamide], in that order: 1.5 µM and 1.9 µM.
For `CC(C)c1ccc(-c2nc3ccccn3c2CN2CC3CN(C(=O)C4CCCC4)CC3C2)cc1` (stereo not drawn) [Example 28], in that order: 0.3 µM and 0.19 µM.
Consider `O=C(Nc1ccccc1F)N1CC2CN(Cc3c(-c4ccc(Br)cc4)nc4ccccn34)CC2C1` (stereo not drawn) [Example 41], for which the figures for the IC50 at human TASK-1 and at human TASK-3 were 0.58 µM and 2.9 µM, respectively.
Turning to `O=C(c1ccccc1)N1CC2CN(Cc3c(-c4ccc(Cl)cc4)nc4ccc(-c5ccccc5)cn34)CC2C1` (stereo not drawn) [Example 160 in WO 2014/187922, reference compound], the IC50 on human TASK-1 was 15 µM; at human TASK-3, 2.4 µM.
For `COc1ccccc1C(=O)N1CC2CN(Cc3c(-c4ccc(Br)cc4)nc4ccccn34)CC2C1` (stereo not drawn) [Example 11], in that order: 1.21 µM and 2.5 µM.
For `O=C(c1cccc(OC(F)(F)F)c1)N1CC2CN(Cc3c(-c4ccc(Cl)cc4)nc4ccccn34)CC2C1` (stereo not drawn) [Example 22], in that order: 1.46 µM and 0.32 µM.
Turning to `Cc1ccc(F)cc1C(=O)N1CC2CN(Cc3c(-c4ccc(Cl)cc4)nc4ccccn34)CC2C1` (stereo not drawn) [Example 21], the IC50 came out at 1.25 µM at human TASK-1 and 0.23 µM on human TASK-3.
For `O=C(Nc1ccc(F)cc1)N1CC2CN(Cc3c(-c4ccc(Br)cc4)nc4ccccn34)CC2C1` (stereo not drawn) [Example 47], in that order: 1 µM and 0.24 µM.
For `O=C(OC1CCCC1)N1CC2CN(Cc3c(-c4ccc(Br)cc4)nc4ccccn34)CC2C1` (stereo not drawn) [Example 34], in that order: 0.5 µM and 3.3 µM.
For `O=C(C1CCC1)N1CC2CN(Cc3c(-c4ccc(Br)cc4)nc4ccccn34)CC2C1` (stereo not drawn) [Example 9], in that order: 0.749 µM and 0.66 µM.
In the case of `O=C(c1cccc(C(F)(F)F)c1)N1CC2CN(Cc3c(-c4ccc(Cl)cc4)nc4ccccn34)CC2C1` (stereo not drawn) [Example 23], the IC50 at human TASK-1 was found to be 0.728 µM; at human TASK-3, 0.1 µM.
On to `COc1ccc(F)c(C(=O)N2CC3CN(Cc4c(-c5ccc(C(C)C)cc5)nc5ccccn45)CC3C2)n1` (stereo not drawn) [Example 48], for which the values for the IC50 on human TASK-1 and on human TASK-3 were 0.078 µM and 0.079 µM, respectively.
On to `O=C(NC1CCCCC1)N1CC2CN(Cc3c(-c4ccc(Br)cc4)nc4ccccn34)CC2C1` (stereo not drawn) [Example 45], for which the IC50 at human TASK-1 turned out to be 2.3 µM; on human TASK-3, 5.8 µM.
For `COc1cccc(C(=O)N2CC3CN(Cc4c(-c5ccc(C(C)C)cc5)nc5ccccn45)CC3C2)c1` (stereo not drawn) [Example 27], in that order: 0.17 µM and 0.17 µM.
Regarding `O=C(c1cc(F)ccc1Cl)N1CC2CN(Cc3c(-c4ccc(Cl)cc4)nc4ccccn34)CC2C1` (stereo not drawn) [Example 15], the IC50 on human TASK-1 came to 1 µM; on human TASK-3, 2.9 µM.
Take `O=C(C1CCCC1)N1CC2CN(Cc3c(-c4ccc(Br)cc4)nc4ccccn34)CC2C1` (stereo not drawn) [Example 5, [5-{[2-(4-Bromophenyl)imidazo[1,2-a]pyridin-3-yl]methyl}hexahydropyrrolo[3,4-c]pyrrol-2(1H)-yl](cyclopentyl)methanone]: the IC50 at human TASK-1 amounted to 1.13 µM; on human TASK-3, 1.6 µM.
With `CC(C)COC(=O)N1CC2CN(Cc3c(-c4ccc(Br)cc4)nc4ccccn34)CC2C1` (stereo not drawn) [Example 32], the IC50 at human TASK-1 was 1.1 µM; on human TASK-3, 1.2 µM.
